{"source": "patent US20210395239A1", "about": "(Hoffmann-La Roche Inc., priority 2018, published 2021)"}
{"target": "T1, human TLR8 (Homo sapiens, UniProt Q9NR97)", "T1 construct": "host or cells: HEK293 (HEK-Blue hTLR8)", "T1 sequence (Q9NR97 27-1041)": "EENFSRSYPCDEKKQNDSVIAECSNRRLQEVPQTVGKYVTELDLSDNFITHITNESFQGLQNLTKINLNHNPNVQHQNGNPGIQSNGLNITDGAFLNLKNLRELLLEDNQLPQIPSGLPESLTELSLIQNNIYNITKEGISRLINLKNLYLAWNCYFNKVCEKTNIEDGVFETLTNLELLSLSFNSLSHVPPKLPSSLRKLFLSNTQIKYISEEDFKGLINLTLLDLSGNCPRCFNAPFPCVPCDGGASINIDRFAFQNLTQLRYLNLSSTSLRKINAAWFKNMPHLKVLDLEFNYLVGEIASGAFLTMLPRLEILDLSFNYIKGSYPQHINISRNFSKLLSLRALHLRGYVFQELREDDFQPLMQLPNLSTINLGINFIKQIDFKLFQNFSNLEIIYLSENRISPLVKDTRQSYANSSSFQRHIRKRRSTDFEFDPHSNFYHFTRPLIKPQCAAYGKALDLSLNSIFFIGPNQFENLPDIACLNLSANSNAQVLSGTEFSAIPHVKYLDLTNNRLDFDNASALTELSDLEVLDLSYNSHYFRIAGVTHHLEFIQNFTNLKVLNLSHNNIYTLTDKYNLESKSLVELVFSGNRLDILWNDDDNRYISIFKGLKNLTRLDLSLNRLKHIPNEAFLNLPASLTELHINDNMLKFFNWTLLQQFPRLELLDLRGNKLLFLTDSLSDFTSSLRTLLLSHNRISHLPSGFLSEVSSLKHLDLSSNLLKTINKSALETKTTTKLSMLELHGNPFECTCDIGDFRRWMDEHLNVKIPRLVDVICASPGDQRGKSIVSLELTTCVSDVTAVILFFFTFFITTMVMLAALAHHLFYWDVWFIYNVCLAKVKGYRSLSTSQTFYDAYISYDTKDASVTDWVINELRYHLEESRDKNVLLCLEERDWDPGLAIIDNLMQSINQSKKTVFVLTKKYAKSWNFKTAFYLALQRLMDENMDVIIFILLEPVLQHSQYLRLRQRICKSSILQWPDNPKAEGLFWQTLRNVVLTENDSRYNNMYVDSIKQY", "assay": "HEK293-Blue-hTLR-8 cells assay (SEAP reporter, R848 stimulation)", "type": "cell-based", "details": "HEK293-Blue-hTLR8 cells, R848, 20 hrs; read-out: HEK/hTLR8 IC50", "procedure,_shortened": "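Antagonism read as reduced R848-induced SEAP reporter secretion, detected by QUANTI-Blue absorbance at 620–655 nm after 2 h. Reporter cells were exposed to compound dilutions in DMEM/10% FBS, 1% DMSO, for 20 h at 37° C.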", "units": {"IC50": "nM"}}
{"smiles": "[2H]c1ccc2c(N3C[C@H](CN4CCN(c5ccc(N[C@H]6CNC[C@H]6F)nc5)CC4)O[C@H](C)C3)ccc(C#N)c2n1", "note": "[Example 162, 2-deuterio-5-[(2S,6R)-2-[[4-[6-[[(3S,4R)-4-fluoropyrrolidin-3-yl]amino]-3-pyridyl]piperazin-1-yl]methyl]-6-methyl-morpholin-4-yl]quinoline-8-carbonitrile]", "IC50": 11}
{"smiles": "C[C@@H]1CN(c2ccc(C#N)n3nccc23)C[C@H](CN2CC(c3ccc(N4CC(C)(N)C4)cc3)C2)O1", "note": "[Example 163, 4-[(2S,6R)-2-[[3-[4-(3-amino-3-methyl-azetidin-1-yl)phenyl]azetidin-1-yl]methyl]-6-methyl-morpholin-4-yl]pyrazolo[1,5-a]pyridine-7-carbonitrile]", "IC50": 68}
{"smiles": "CO[C@@H]1CN(c2ccc(C3CN(C[C@H]4CN(c5ccc(C#N)n6ncc(F)c56)C[C@@H](C)O4)C3)cn2)C[C@H]1N", "note": "[Example 164, 4-[(2S,6R)-2-[[3-[6-[(3R,4R)-3-amino-4-methoxy-pyrrolidin-1-yl]-3-pyridyl]azetidin-1-yl]methyl]-6-methyl-morpholin-4-yl]-3-fluoro-pyrazolo[1,5-a]pyridine-7-carbonitrile]", "IC50": 30}
{"smiles": "C[C@@H]1CN(c2ccc(C#N)n3ncc(F)c23)C[C@H](CN2CC(c3ccc(N4C[C@@H]5C[C@H]4CN5)nc3)C2)O1", "note": "[Example 165, 4-[(2S,6R)-2-[[3-[6-[(1S,4S)-2,5-diazabicyclo[2.2.1]heptan-2-yl]-3-pyridyl]azetidin-1-yl]methyl]-6-methyl-morpholin-4-yl]-3-fluoro-pyrazolo[1,5-a]pyridine-7-carbonitrile]", "IC50": 92}
{"smiles": "CO[C@@H]1CN(c2ccc(N3CCN(C[C@H]4CN(c5ccc(C#N)n6ncc(F)c56)C[C@@H](C)O4)CC3)cn2)C[C@H]1N", "note": "[Example 166, 4-[(2S,6R)-2-[[4-[6-[(3R,4R)-3-amino-4-methoxy-pyrrolidin-1-yl]-3-pyridyl]piperazin-1-yl]methyl]-6-methyl-morpholin-4-yl]-3-fluoro-pyrazolo[1,5-a]pyridine-7-carbonitrile]", "IC50": 31}
